Source: PubChem BioAssay AID1963442 (Molecular Pharmacology Branch, DTP, NCI, 2024)

Test system: MPNST complex spheroid with HUVEC/MSC, growth, % test/control
Test: Anticancer human tumor MPNST cell line growth inhibition [Asc];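 further: compounds left on spheroids for seven days before reading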
Settings: for IC50: curve of first compound; for viability, T/C: stronger effect = lower value
Outline: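 Spheroid model: tumor line + HUVEC + hMSC. Single agents and combinations; top conc. at/near clinical Cmax (10 microM if undetermined), half-log dilutions. DMSO stocks at 800-fold test concentration.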

[1] = second compound 0.00316 µM, first compound 0.0316 µM
[2] = second compound 0.00316 µM, first compound 0.1 µM
[3] = second compound 0.01 µM, first compound 0.0316 µM
[4] = second compound 0.01 µM, first compound 0.1 µM
[5] = second compound 0.0316 µM, first compound 0.0316 µM
[6] = second compound 0.0316 µM, first compound 0.1 µM
[7] = second compound 0.1 µM, first compound 0.0316 µM
[8] = second compound 0.1 µM, first compound 0.1 µM
[9] = second compound 0.316 µM, first compound 0.0316 µM
[10] = second compound 0.316 µM, first compound 0.1 µM
[11] = second compound 1 µM, first compound 0.0316 µM
[12] = second compound 1 µM, first compound 0.1 µM

Compound: NC1CCC(NC2CC2c2ccccc2)CC1 (centres undefined) + CNC(C)C(=O)NC1CN(S(=O)(=O)c2cccc(S(=O)(=O)N3CCC4CCC(C(=O)NC(c5ccccc5)c5ccccc5)N4C(=O)C(NC(=O)C(C)NC)C3)c2)CCC2CCC(C(=O)NC(c3ccccc3)c3ccccc3)N2C1=O
- IC50 (second compound 0.00316 µM): > 100 nM
- IC50 (second compound 0.01 µM): 83.9 nM
- IC50 (second compound 0.0316 µM): > 100 nM
- IC50 (second compound 0.1 µM): > 100 nM
- IC50 (second compound 0.316 µM): 95.3 nM
- IC50 (second compound 1 µM): > 100 nM
- viability, T/C (second compound 0.00316 µM, first compound 0.000316 µM): 65.4%
- viability, T/C (second compound 0.00316 µM, first compound 0.001 µM): 91.4%
- viability, T/C (second compound 0.00316 µM, first compound 0.00316 µM): 51.1%
- viability, T/C (second compound 0.00316 µM, first compound 0.01 µM): 99.5%
- viability, T/C [1]: 55%
- viability, T/C [2]: 52.7%
- viability, T/C (second compound 0.01 µM, first compound 0.000316 µM): 72.2%
- viability, T/C (second compound 0.01 µM, first compound 0.001 µM): 74.9%
- viability, T/C (second compound 0.01 µM, first compound 0.00316 µM): 79.5%
- viability, T/C (second compound 0.01 µM, first compound 0.01 µM): 84.7%
- viability, T/C [3]: 62.6%
- viability, T/C [4]: 47.7%
- viability, T/C (second compound 0.0316 µM, first compound 0.000316 µM): 88.5%
- viability, T/C (second compound 0.0316 µM, first compound 0.001 µM): 63.8%
- viability, T/C (second compound 0.0316 µM, first compound 0.00316 µM): 70.4%
- viability, T/C (second compound 0.0316 µM, first compound 0.01 µM): 81.8%
- viability, T/C [5]: 61.8%
- viability, T/C [6]: 61.6%
- viability, T/C (second compound 0.1 µM, first compound 0.000316 µM): 94.8%
- viability, T/C (second compound 0.1 µM, first compound 0.001 µM): 79.1%
- viability, T/C (second compound 0.1 µM, first compound 0.00316 µM): 87.3%
- viability, T/C (second compound 0.1 µM, first compound 0.01 µM): 61.1%
- viability, T/C [7]: 69.5%
- viability, T/C [8]: 54.3%
- viability, T/C (second compound 0.316 µM, first compound 0.000316 µM): 83.3%
- viability, T/C (second compound 0.316 µM, first compound 0.001 µM): 77.2%
- viability, T/C (second compound 0.316 µM, first compound 0.00316 µM): 69.3%
- viability, T/C (second compound 0.316 µM, first compound 0.01 µM): 99.6%
- viability, T/C [9]: 79.6%
- viability, T/C [10]: 48.7%
- viability, T/C (second compound 1 µM, first compound 0.000316 µM): 92.9%
- viability, T/C (second compound 1 µM, first compound 0.001 µM): 59.2%
- viability, T/C (second compound 1 µM, first compound 0.00316 µM): 69.1%
- viability, T/C (second compound 1 µM, first compound 0.01 µM): 63.3%
- viability, T/C [11]: 85.2%
- viability, T/C [12]: 55.7%

Compound: C=CC(=O)N1CCN(c2nc(=O)n(-c3c(C)ccnc3C(C)C)c3nc(-c4c(O)cccc4F)c(F)cc23)C(C)C1 (centres undefined) + CNC(C)C(=O)NC1CN(S(=O)(=O)c2cccc(S(=O)(=O)N3CCC4CCC(C(=O)NC(c5ccccc5)c5ccccc5)N4C(=O)C(NC(=O)C(C)NC)C3)c2)CCC2CCC(C(=O)NC(c3ccccc3)c3ccccc3)N2C1=O
- IC50 (second compound 0.00316 µM): > 10000 nM
- IC50 (second compound 0.01 µM): > 10000 nM
- IC50 (second compound 0.0316 µM): > 10000 nM
- IC50 (second compound 0.1 µM): > 10000 nM
- IC50 (second compound 0.316 µM): > 10000 nM
- IC50 (second compound 1 µM): > 10000 nM
- viability, T/C [1]: 81.6%
- viability, T/C [2]: 98.1%
- viability, T/C (second compound 0.00316 µM, first compound 0.316 µM): 94.1%
- viability, T/C (second compound 0.00316 µM, first compound 1 µM): 102%
- viability, T/C (second compound 0.00316 µM, first compound 3.16 µM): 110%
- viability, T/C (second compound 0.00316 µM, first compound 10 µM): 128%
- viability, T/C [3]: 81.2%
- viability, T/C [4]: 101%
- viability, T/C (second compound 0.01 µM, first compound 0.316 µM): 84%
- viability, T/C (second compound 0.01 µM, first compound 1 µM): 112%
- viability, T/C (second compound 0.01 µM, first compound 3.16 µM): 114%
- viability, T/C (second compound 0.01 µM, first compound 10 µM): 145%
- viability, T/C [5]: 96.1%
- viability, T/C [6]: 69.1%
- viability, T/C (second compound 0.0316 µM, first compound 0.316 µM): 127%
- viability, T/C (second compound 0.0316 µM, first compound 1 µM): 109%
- viability, T/C (second compound 0.0316 µM, first compound 3.16 µM): 125%
- viability, T/C (second compound 0.0316 µM, first compound 10 µM): 185%
- viability, T/C [7]: 101%
- viability, T/C [8]: 92.7%
- viability, T/C (second compound 0.1 µM, first compound 0.316 µM): 117%
- viability, T/C (second compound 0.1 µM, first compound 1 µM): 107%
- viability, T/C (second compound 0.1 µM, first compound 3.16 µM): 127%
- viability, T/C (second compound 0.1 µM, first compound 10 µM): 161%
- viability, T/C [9]: 73%
- viability, T/C [10]: 79.5%
- viability, T/C (second compound 0.316 µM, first compound 0.316 µM): 113%
- viability, T/C (second compound 0.316 µM, first compound 1 µM): 106%
- viability, T/C (second compound 0.316 µM, first compound 3.16 µM): 115%
- viability, T/C (second compound 0.316 µM, first compound 10 µM): 148%
- viability, T/C [11]: 98.4%
- viability, T/C [12]: 99.9%
- viability, T/C (second compound 1 µM, first compound 0.316 µM): 102%
- viability, T/C (second compound 1 µM, first compound 1 µM): 79%
- viability, T/C (second compound 1 µM, first compound 3.16 µM): 143%
- viability, T/C (second compound 1 µM, first compound 10 µM): 154%
